Test [1] deals with the four isomaltases (Ima1p, Ima2p, Ima3p, Ima5p). The test is described as follows: Effects of chemical reagents and metal ions on purified isomaltases. Format: biochemical, Saccharomyces cerevisiae.
The target in test [2] is T1, Ima3p (Saccharomyces cerevisiae, UniProt P0CW40). Conditions: addition of EDTA, 5 mM; 5 mM pNPG as substrate.
Test [3] addresses T2, Ima1p (Saccharomyces cerevisiae, UniProt P53051). The test can be described thus: Effects of chemical reagents and metal ions on purified isomaltases. Format: biochemical. Conditions: 5 mM pNPG as substrate; for effect on activity: Mg2+ 5 mM, Mn2+ 1 mM.
Test [4] has as its target T2, Ima1p. The test can be described thus: Substrate specificity of purified isomaltase. Conditions: 100 mM substrate (pNPG 5 mM), pH 7, 30 °C; for Specific activities: citrate–potassium phosphate buffer. Format: biochemical.
For test [5], the target named is T3, Ima2p (Saccharomyces cerevisiae, UniProt Q08295). The test can be described thus: Substrate specificity of purified isomaltase. Format: biochemical. Conditions: 100 mM substrate (pNPG 5 mM), pH 7, 30 °C; for Specific activities: citrate–potassium phosphate buffer.
The target in test [6] is T1, Ima3p. The test is described as follows: Substrate specificity of purified isomaltase. Format: biochemical. Conditions: 100 mM substrate (pNPG 5 mM), pH 7, 30 °C; for Specific activities: citrate–potassium phosphate buffer.
Test [7] has as its target T4, Ima5p (Saccharomyces cerevisiae, UniProt P40884).
T4 sequence (P40884 1-581): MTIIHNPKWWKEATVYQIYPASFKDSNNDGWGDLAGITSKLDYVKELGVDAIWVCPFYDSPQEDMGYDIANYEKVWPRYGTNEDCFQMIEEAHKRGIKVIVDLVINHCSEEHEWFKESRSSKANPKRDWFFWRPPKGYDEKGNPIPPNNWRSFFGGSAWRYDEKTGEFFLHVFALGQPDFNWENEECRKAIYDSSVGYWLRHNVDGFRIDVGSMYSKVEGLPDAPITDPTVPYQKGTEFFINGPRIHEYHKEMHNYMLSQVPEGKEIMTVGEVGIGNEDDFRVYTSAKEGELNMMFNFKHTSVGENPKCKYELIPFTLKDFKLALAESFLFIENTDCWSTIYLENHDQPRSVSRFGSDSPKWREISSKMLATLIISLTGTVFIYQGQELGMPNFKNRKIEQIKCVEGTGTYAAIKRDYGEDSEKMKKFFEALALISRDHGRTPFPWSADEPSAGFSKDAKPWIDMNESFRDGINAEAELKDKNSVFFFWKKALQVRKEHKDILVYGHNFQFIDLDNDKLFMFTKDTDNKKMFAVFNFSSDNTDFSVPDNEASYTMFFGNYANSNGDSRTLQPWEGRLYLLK
The test is described as follows: Substrate specificity of purified isomaltase. Format: biochemical. The note with it: 100 mM substrate (pNPG 5 mM), pH 7, 30 °C; for Specific activities: citrate–potassium phosphate buffer.

In the next test the target is Ima3pL240P (Saccharomyces cerevisiae, UniProt P0CW40, L240P). The test is described as follows: Substrate specificity of purified isomaltase variant. Format: biochemical. Conditions: 100 mM substrate (pNPG 5 mM), citrate–potassium phosphate buffer, pH 7, 30 °C.
The next test deals with Ima3pR279Q (Saccharomyces cerevisiae, UniProt P0CW40, R279Q). The description is as above. Format: biochemical. The note with it: 100 mM substrate (pNPG 5 mM), citrate–potassium phosphate buffer, pH 7, 30 °C.
The target of test [8] is T2, Ima1p. The test is described as follows: Kinetic parameters for selected substrates. Conditions: for Km: affinity constant for the substrate; for Km / kcat: mean ± SEM. Format: biochemical.
Test [9] deals with T3, Ima2p. The test can be described thus: Kinetic parameters for selected substrates. Format: biochemical.
Test [10] addresses T1, Ima3p. The test can be described thus: Kinetic parameters for selected substrates. Format: biochemical.
Test [11] concerns the target T4, Ima5p. The test can be described thus: Kinetic parameters for selected substrates. Format: biochemical.
Test [12] has as its system the four isomaltases (Ima proteins). The test can be described thus: Effect of compounds on melting temperature of isomaltases. The note with it: Tris 5 mM, assay at pH 7.0, results not shown. Also on record: species or system Saccharomyces cerevisiae.
Test [13] concerns the target T2, Ima1p. The test can be described thus: Inhibition by acarbose of isomaltose hydrolysis. Format: biochemical. The note with it: read-out: residual activity.
Test [14] has as its system the four isomaltases (Ima1p, Ima2p, Ima3p, Ima5p). The test can be described thus: Activity of the isomaltases on substrates. Format: biochemical, Saccharomyces cerevisiae. Conditions: for activity on the substrate: all Ima proteins.
[15] abbreviates: inhibition by high concentration of substrate.
The mark [16] stands for this setting: affinity constant for the substrate, mean ± SEM.
Setting [17] is: substrate concentration increased to 10 mM.

From publication PMC3953731 (FEBS Open Bio, 2014) come the findings set out here.

Like-named read-outs stand apart in the source and are kept apart here.

T1 sequence (P0CW40 whole entry): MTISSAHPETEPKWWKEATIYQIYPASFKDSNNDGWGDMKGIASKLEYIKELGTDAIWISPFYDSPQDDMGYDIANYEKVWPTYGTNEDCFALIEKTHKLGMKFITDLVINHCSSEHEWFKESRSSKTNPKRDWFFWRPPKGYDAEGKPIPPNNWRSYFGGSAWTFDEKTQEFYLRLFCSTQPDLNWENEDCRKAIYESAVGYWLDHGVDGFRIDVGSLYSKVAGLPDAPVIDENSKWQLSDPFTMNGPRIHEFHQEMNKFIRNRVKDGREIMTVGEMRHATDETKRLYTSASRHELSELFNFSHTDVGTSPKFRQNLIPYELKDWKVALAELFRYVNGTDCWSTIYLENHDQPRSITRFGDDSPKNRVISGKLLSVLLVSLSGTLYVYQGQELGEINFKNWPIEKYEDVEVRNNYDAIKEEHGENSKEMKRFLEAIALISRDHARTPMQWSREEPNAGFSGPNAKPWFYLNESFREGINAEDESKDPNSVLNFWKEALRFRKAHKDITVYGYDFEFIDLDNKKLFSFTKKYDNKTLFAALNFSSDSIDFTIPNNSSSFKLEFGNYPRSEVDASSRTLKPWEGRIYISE
Ima3pL240P, sequence (P0CW40 whole entry L240P): as the sequence (P0CW40 whole entry) above, with L240P counted along it
Ima3pR279Q, sequence (P0CW40 whole entry R279Q): as the sequence (P0CW40 whole entry) above, with R279Q counted along it
T2 sequence (P53051 whole entry): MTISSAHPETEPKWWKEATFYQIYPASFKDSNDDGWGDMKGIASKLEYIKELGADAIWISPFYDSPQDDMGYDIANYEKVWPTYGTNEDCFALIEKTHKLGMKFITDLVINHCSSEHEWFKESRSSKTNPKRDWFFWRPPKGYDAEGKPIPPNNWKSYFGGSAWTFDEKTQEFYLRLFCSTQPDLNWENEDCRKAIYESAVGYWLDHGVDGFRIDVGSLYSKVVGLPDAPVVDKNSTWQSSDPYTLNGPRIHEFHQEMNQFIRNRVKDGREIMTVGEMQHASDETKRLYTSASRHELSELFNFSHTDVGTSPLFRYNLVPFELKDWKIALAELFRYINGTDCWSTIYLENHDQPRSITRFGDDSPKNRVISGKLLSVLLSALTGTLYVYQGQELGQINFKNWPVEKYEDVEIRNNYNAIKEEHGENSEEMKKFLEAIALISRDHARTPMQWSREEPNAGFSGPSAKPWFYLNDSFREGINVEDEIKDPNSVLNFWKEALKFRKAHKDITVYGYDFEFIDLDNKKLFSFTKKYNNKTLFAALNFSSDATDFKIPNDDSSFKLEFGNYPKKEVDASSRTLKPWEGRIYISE
T3 sequence (Q08295 whole entry): as the sequence (P0CW40 whole entry) above, with T54A, L240P, R279Q counted along it

Turning to `[Ca+2]` [Ca^2+], the effect on activity entry in [1] (addition of Ca2+, 5 mM) is “None of the isoforms was affected”.
`O=C(O)CN(CCN(CC(=O)O)CC(=O)O)CC(=O)O` [EDTA]: the effect on activity result on Ima3p [2] was “slightly inhibited”.
`[Fe+3]` [Fe^3+] yielded a residual activity on Ima1p [3] (5 mM Fe3+, pH 7, 30 °C) of 8%.
Regarding `[Mg+2]` [Mg^2+], at Ima1p [3], the effect on activity entry is on record as “slightly enhanced”.
Turning to `[Mn+2]` [Mn^2+], the effect on activity result on Ima1p [3] was “slightly enhanced”.
For the molecule `OC[C@H]1O[C@H](OC[C@H]2O[C@H](O[C@H]3[C@H](O)[C@@H](O)C(O)O[C@@H]3CO)[C@H](O)[C@@H](O)[C@@H]2O)[C@H](O)[C@@H](O)[C@@H]1O` (stereo partly drawn) [Panose, O-α-D-Glucosyl-(1→6)-α-D-glucosyl-(1→4)-D-glucose], the Specific activities at Ima1p [4] was found to be 3.1 µmol/min/mg; on Ima2p [5] it was 2.9 µmol/min/mg; on Ima3p [6], 0 µmol/min/mg; on Ima5p [7], 11 µmol/min/mg; at Ima3pL240P it was 0 µmol/min/mg; on Ima3pR279Q it was 3.1 µmol/min/mg. Besides, the “relative activity, velocity on isomaltose set to 100” value (“relative activity, velocity” for short) on Ima1p [4] worked out at 5%; at Ima2p [5], 5%; at Ima5p [7] it was 17%. In addition, the Km on Ima1p [8] stood at 82 ± 17 mM; at Ima5p [11] (setting [16]), 82 ± 12 mM. Further, the Ki result on Ima1p [8] (setting [15]), at Ima2p [9] (setting [15]), on Ima3p [10] (setting [15]) and at Ima5p [11] (setting [15]) was “None” each time. For the same molecule, the kcat was found to be 6.3 ± 0.5 s⁻¹ at Ima1p [8], 7.7 ± 0.7 s⁻¹ on Ima2p [9] (mean ± SEM), 0 s⁻¹ at Ima3p [10] (mean ± SEM) and 23 ± 1 s⁻¹ on Ima5p [11] (mean ± SEM). Besides, the “more activity of Ima5p than Ima1p” value at Ima5p [11] (whatsoever the panose concentration) was found to be 3.5 fold.
Regarding `OC[C@H]1O[C@@](CO)(O[C@H]2O[C@H](CO)[C@@H](O)[C@H](O)[C@H]2O)[C@@H](O)[C@@H]1O` [Sucrose, O-α-D-Glucosyl-(1→2)-β-D-fructose], the Specific activities at Ima1p [4] came to 18.6 µmol/min/mg; at Ima2p [5] it was 19.7 µmol/min/mg; at Ima3p [6] it was 10.2 µmol/min/mg; at Ima5p [7], 1.2 µmol/min/mg; at Ima3pL240P it was 11.2 µmol/min/mg; at Ima3pR279Q, 22 µmol/min/mg. The “relative activity, velocity” value on Ima1p [4] is on record as 31%; at Ima1p [4] (listed as sucrose), “approx. 35%”; on Ima2p [5] it was 36%; on Ima2p [5] (listed as sucrose), “approx. 35%”; on Ima3p [6] it was 142%; at Ima5p [7] it was 2%. Besides, the Ki entry on Ima1p [8] (setting [15]), at Ima2p [9] (setting [15]), on Ima3p [10] (setting [15]) and on Ima5p [11] (setting [15]) was “None” in each case. Further, the kcat was determined as 51 ± 4 s⁻¹ at Ima1p [8], 55 ± 4 s⁻¹ at Ima2p [9] (mean ± SEM), 25 ± 1 s⁻¹ on Ima3p [10] (mean ± SEM) and 3.8 ± 0.2 s⁻¹ at Ima5p [11] (mean ± SEM). Besides, the “catalytic efficiency on sucrose, times lower than on isomaltose” value at Ima3p [10] worked out at 2 times. Besides, at Ima3p [10], the “catalytic efficiency on sucrose, times lower than on palatinose” value is reported as 4 times. Further, the “lower activity of Ima5p than Ima1p” value at Ima5p [11] is on record as 10 fold.
For `NC(CO)(CO)CO` [Tris], the “inhibition of the activity” value in [1] (5 mM Tris) came to 90%. The “increase of Tm of the 4 proteins” value in [12] was “about 5 °C”.
For the molecule `C[C@H]1O[C@H](O[C@H]2[C@H](O)[C@@H](O)[C@@H](O[C@H]3[C@H](O)[C@@H](O)C(O)O[C@@H]3CO)O[C@@H]2CO)[C@H](O)[C@@H](O)[C@@H]1N[C@H]1C=C(CO)[C@@H](O)[C@H](O)[C@H]1O` (stereo partly shown) [acarbose], on Ima1p [13], the remaining activity at 5000 µM was approximately 80% and the remaining activity at 20000 µM is approximately 40%.
On to `OC[C@H]1O[C@H](OC[C@H]2O[C@H](O)[C@H](O)[C@@H](O)[C@@H]2O)[C@H](O)[C@@H](O)[C@H]1O` [melibiose, O-α-D-galactosyl-(1→6)-α-D-glucose], for which the “activity on the substrate” value in test [14] was “inactive”.
Regarding `COC1OC(CO)C(O)C(O)C1O` (stereo not drawn) [α-MG, α-Methylglucopyranoside], the Specific activities at Ima1p [4] was 52 µmol/min/mg; on Ima2p [5] it was 55 µmol/min/mg; on Ima3p [6] it was 11 µmol/min/mg; on Ima5p [7], 0 (0) μmol/min/mg; on Ima3pL240P, 6.5 µmol/min/mg; at Ima3pR279Q it was 50 µmol/min/mg. For the same molecule, the “relative activity, velocity” value at Ima1p [4] is listed as 87%; at Ima2p [5], 102%; at Ima3p [6], 153%; at Ima5p [7], 0 (0) %. The Km at Ima1p [8] was 27 ± 5 mM; on Ima2p [9] (setting [16]), 28 ± 6 mM; on Ima3p [10] (setting [16]) it was 15 ± 2 mM. In addition, the kcat is 84 ± 8 s⁻¹ at Ima1p [8], 88 ± 9 s⁻¹ at Ima2p [9] (mean ± SEM), 14 ± 1 s⁻¹ on Ima3p [10] (mean ± SEM) and 0 s⁻¹ on Ima5p [11] (mean ± SEM). Also, the Ki entry on Ima3p [10] (setting [15]) and at Ima5p [11] (setting [15]) was “None” each time.
Consider `O=[N+]([O-])c1ccc(O[C@H]2O[C@H](CO)[C@@H](O)[C@H](O)[C@H]2O)cc1` [α-pNPG, 4-Nitrophenyl α-D-glucopyranoside], for which the Specific activities at Ima1p [4] was determined as 5.8 µmol/min/mg; at Ima2p [5], 7.7 µmol/min/mg; at Ima3p [6], 3.9 µmol/min/mg; on Ima5p [7] it was 10 µmol/min/mg; at Ima3pL240P, 5.5 µmol/min/mg; at Ima3pR279Q it was 8.5 µmol/min/mg. The “relative activity, velocity” value is given as 10% at Ima1p [4], 14% on Ima2p [5], 54% on Ima3p [6] and 15% at Ima5p [7]. In addition, the Ki turned out to be 25 ± 15 mM at Ima1p [8], 12 ± 3 mM at Ima2p [9], 9.8 ± 3.2 mM at Ima3p [10] and 33 ± 21 mM at Ima5p [11]. The “drop of activity at high substrate concentration” value was 10% at Ima1p [8] (setting [17]), 33% at Ima3p [10] (setting [17]) and 10% at Ima5p [11] (setting [17]). Moreover, the Km in test [14] (read-out: affinity constants (Km), approximate, over the Ima proteins) was approximately 0.5 mM.
For the molecule `O=[N+]([O-])c1ccc(O[C@@H]2O[C@H](CO)[C@@H](O)[C@H](O)[C@H]2O)cc1` [β-pNPG, 4-Nitrophenyl β-D-glucopyranoside], the Specific activities at Ima1p [4], on Ima2p [5], on Ima3p [6] and on Ima5p [7] was 0 µmol/min/mg throughout. Also, the “activity on the substrate” value in test [14] was “no release of pNP”.
For maltoheptaose, the “activity on the substrate” value in test [14] is “No activity could be detected”.
On the same count and under the same terms, under maltopentaose stands “No activity could be detected”.

In general, residual activity refers to what remains of the control signal, in per cent. A higher residual activity goes with much activity left. For orientation: Km means the concentration of substrate that gives half-maximal velocity. A word on the Ki: it is a measure of affinity in units of concentration, obtained from inhibition or displacement. Low readings indicate a stronger hold on the target, high ones a looser hold on the target. By kcat is commonly meant the number of substrate molecules converted per active site and unit of time at saturation.
